Data on 15 molecules can be found in patent publication US20250376461A1, “INDAZOLE DERIVATIVES FOR TREATING TRPM3-MEDIATED DISORDERS” (Katholieke Universiteit Leuven, priority 2022, published 2025).

The target of the experiment is T1, mouse TRPM3α2 (mTRPM3) ion channel (Mus musculus, UniProt J9SQF3).
T1 construct: expressed in transfected cells; host or cells: flip-in HEK293
T1 sequence (J9SQF3 1-1709 isoform J9SQF3-12): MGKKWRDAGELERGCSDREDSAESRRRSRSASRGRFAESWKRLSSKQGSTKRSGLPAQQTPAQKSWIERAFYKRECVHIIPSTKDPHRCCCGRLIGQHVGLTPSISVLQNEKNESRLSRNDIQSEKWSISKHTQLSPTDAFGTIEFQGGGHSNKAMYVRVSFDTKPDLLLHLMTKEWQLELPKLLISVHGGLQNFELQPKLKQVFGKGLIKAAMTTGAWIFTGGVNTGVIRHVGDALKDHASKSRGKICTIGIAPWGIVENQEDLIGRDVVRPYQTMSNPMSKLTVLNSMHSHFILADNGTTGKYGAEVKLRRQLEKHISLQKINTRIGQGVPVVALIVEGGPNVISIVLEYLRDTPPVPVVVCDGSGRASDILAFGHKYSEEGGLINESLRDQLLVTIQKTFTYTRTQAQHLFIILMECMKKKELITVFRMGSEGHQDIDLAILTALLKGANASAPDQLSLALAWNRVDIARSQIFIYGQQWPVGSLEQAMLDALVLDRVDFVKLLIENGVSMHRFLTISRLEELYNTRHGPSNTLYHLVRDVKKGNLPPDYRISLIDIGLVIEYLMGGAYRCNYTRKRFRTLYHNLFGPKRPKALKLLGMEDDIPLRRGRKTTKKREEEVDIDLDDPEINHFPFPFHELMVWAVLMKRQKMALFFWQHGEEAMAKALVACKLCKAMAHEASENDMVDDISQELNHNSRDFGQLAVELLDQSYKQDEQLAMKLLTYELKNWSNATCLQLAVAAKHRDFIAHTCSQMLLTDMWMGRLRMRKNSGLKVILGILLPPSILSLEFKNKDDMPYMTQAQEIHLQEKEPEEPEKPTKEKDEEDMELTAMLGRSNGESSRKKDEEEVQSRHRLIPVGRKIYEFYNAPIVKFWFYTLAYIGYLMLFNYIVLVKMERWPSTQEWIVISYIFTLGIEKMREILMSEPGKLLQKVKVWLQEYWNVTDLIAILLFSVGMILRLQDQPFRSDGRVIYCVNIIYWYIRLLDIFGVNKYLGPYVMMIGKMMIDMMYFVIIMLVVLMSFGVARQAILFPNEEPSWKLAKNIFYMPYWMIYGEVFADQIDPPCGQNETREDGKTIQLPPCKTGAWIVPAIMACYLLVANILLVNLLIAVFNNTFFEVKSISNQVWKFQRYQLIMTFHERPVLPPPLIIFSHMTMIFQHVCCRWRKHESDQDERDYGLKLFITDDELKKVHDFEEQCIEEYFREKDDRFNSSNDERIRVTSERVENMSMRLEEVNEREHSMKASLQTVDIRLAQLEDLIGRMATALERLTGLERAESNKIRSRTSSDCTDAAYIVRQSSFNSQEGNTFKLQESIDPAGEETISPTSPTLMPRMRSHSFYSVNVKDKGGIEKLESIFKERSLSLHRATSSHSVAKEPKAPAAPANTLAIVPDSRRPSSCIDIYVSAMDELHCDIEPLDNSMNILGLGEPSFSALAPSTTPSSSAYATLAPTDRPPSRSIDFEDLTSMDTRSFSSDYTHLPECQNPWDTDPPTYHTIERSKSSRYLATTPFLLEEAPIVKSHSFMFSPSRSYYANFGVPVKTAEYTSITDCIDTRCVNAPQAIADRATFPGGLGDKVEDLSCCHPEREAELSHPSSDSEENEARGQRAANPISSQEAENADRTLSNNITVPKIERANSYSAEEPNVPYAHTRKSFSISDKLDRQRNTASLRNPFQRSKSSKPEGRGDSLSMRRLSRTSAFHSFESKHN
The experiment is described as follows: TRPM3 ion channel driven Ca2+ uptake, Fluo-4 AM assay, mTRPM3alpha2 overexpressing flip-in HEK293 cells stimulated with pregnenolone sulfate (50 μM). The format is cell-based. The note with it: mTRPM3 overexpressing HEK293 cells stimulated with pregnenolone sulfate (50 μM), activity ranges A, B, C. A digest of the protocol: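 Flip-in HEK293 cells overexpressing mTRPM3α2, loaded with Fluo-4 AM, added at ±2000 cells/well to plates holding compound plus 50 μM pregnenolone sulfate in Ca2+-containing Krebs buffer. Fluorescence (ex 485/em 535 nm) read immediately. Percent inhibition normalised between vehicle and positive-control inhibitor; IC50 derived.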
For orientation: IC50 means the midpoint of a concentration-inhibition curve. Consider `Cn1nc2ccc(OCC3CCCC3)cc2c1C(=O)NC(C)(C)C(N)=O` [Cpd 145, 2-{[5-(cyclopentylmethoxy)-2-methyl-2H-indazol-3-yl]formamido}-2-methylpropanamide], for which the IC50 is 1 to 20 µM.
Take `Cn1nc2ccc(OCC3(C#N)CC3)cc2c1C(=O)NC(C)(CO)CO` [Cpd 146, 5-[(1-cyanocyclopropyl)methoxy]-N-(1,3-dihydroxy-2-methylpropan-2-yl)-2-methyl-2H-indazole-3-carboxamide]: the IC50 is more than 20 µM.
The value for `Cc1ncc(COc2ccc3nn(C)c(C(=O)NC(CO)(CO)CO)c3c2)s1` [Cpd 147, N-[1,3-dihydroxy-2-(hydroxymethyl)propan-2-yl]-2-methyl-5-[(2-methyl-1,3-thiazol-5-yl)methoxy]-2H-indazole-3-carboxamide] was 1 to 20 µM; that for `Cn1nc2ccc(OCC3(C#N)CC3)cc2c1C(=O)N[C@@H](CO)C(N)=O` [Cpd 148, (2S)-2-({5-[(1-cyanocyclopropyl)methoxy]-2-methyl-2H-indazol-3-yl}formamido)-3-hydroxypropanamide] was 1 to 20 µM; that for `Cc1ncc(COc2ccc3nn(C)c(C(=O)N[C@H](C(N)=O)[C@@H](C)O)c3c2)s1` [Cpd 149, (2S,3R)-3-hydroxy-2-({2-methyl-5-[(2-methyl-1,3-thiazol-5-yl)methoxy]-2H-indazol-3-yl}formamido)butanamide] was less than 1 µM.
The value for `Cc1ncc(COc2ccc3nn(C)c(C(=O)NCC(F)F)c3c2)s1` [Cpd 150, N-(2,2-difluoroethyl)-2-methyl-5-[(2-methyl-1,3-thiazol-5-yl)methoxy]-2H-indazole-3-carboxamide] was 1 to 20 µM; that for `Cn1nc2ccc(OCc3ccccn3)cc2c1C(=O)N[C@@H]1CCN(CCO)C1=O` [Cpd 152, N-[(3R)-1-(2-hydroxyethyl)-2-oxopyrrolidin-3-yl]-2-methyl-5-[(pyridin-2-yl)methoxy]-2H-indazole-3-carboxamide] was 1 to 20 µM.
Consider `Cn1nc2ccc(OCc3ccccn3)cc2c1C(=O)N[C@H]1CCN(CCO)C1=O` [Cpd 153, N-[(3S)-1-(2-hydroxyethyl)-2-oxopyrrolidin-3-yl]-2-methyl-5-[(pyridin-2-yl)methoxy]-2H-indazole-3-carboxamide], for which the IC50 is more than 20 µM.
Next, `Cn1cc(COc2ccc3nn(C)c(C(=O)NC(C)(CO)C(N)=O)c3c2)cn1` (stereo not drawn) [Cpd 156, 3-hydroxy-2-methyl-2-({2-methyl-5-[(1-methyl-1H-pyrazol-4-yl)methoxy]-2H-indazol-3-yl}formamido)propanamide]: 1 to 20 µM.
Next, `CCC(CO)(NC(=O)c1c2cc(OCc3ccccn3)ccc2nn1C)C(N)=O` (stereo not drawn) [Cpd 189, 2-(hydroxymethyl)-2-({2-methyl-5-[(pyridin-2-yl)methoxy]-2H-indazol-3-yl}formamido)butanamide]: less than 1 µM.
Next, `CC1CC(COc2ccc3nn(C)c(C(=O)NC(C)(CO)C(N)=O)c3c2)C1` (stereo not drawn) [Cpd 196, 3-hydroxy-2-methyl-2-({2-methyl-5-[(3-methylcyclobutyl)methoxy]-2H-indazol-3-yl}formamido)propenamide]: 1 to 20 µM; `Cn1nc2ccc(OCc3ccccc3)cc2c1C(=O)O` [Cpd 197, 5-(benzyloxy)-2-methyl-2H-indazole-3-carboxylic acid]: 1 to 20 µM; `Cn1nc2ccc(OCc3ccccc3F)cc2c1C(=O)O` [Cpd 198, 5-[(2-fluorophenyl)methoxy]-2-methyl-2H-indazole-3-carboxylic acid]: 1 to 20 µM.
In turn, `Cc1ncsc1COc1ccc2nn(C)c(C(=O)O)c2c1` [Cpd 199, 2-methyl-5-[(4-methyl-1,3-thiazol-5-yl)methoxy]-2H-indazole-3-carboxylic acid] displayed an IC50 of more than 20 µM.
The value for `Cn1nc2ccc(OCc3ccccn3)cc2c1C(=O)NCC(F)(F)F` [Cpd 204, 2-methyl-5-[(pyridin-2-yl)methoxy]-N-(2,2,2-trifluoroethyl)-2H-indazole-3-carboxamide] was more than 20 µM.
